Assay results from ChEMBL document CHEMBL4118189, “Discovery of novel N-hydroxy-2-arylisoindoline-4-carboxamides as potent and selective inhibitors of HDAC11” (Bioorg Med Chem Lett, 2018).

Tests used:
[1] = biological target: Histone deacetylase 5 (Homo sapiens, UniProt Q9UQL6); assay: Inhibition of full length recombinant human HDAC5 using fluorescent-labeled peptide as substrate by electrophoretic mobility shift assay
[2] = biological target: T1, Histone deacetylase 11 (Homo sapiens, UniProt Q96DB2); assay: Inhibition of full length recombinant human HDAC11 expressed in baculoviral expression system using FAM-RHKK as substrate by electrophoretic mobility shift assay
T1 sequence (Q96DB2 whole entry): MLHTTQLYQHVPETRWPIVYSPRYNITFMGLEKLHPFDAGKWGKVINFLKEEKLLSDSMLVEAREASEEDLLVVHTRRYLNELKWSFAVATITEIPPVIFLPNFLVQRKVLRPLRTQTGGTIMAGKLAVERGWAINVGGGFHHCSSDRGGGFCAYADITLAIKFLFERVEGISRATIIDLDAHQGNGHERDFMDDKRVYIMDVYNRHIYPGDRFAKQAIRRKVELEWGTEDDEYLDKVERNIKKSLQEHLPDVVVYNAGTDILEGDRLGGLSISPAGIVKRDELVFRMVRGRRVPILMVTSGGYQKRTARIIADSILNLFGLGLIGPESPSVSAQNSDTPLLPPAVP

[3] = biological target: T2, Protein deacetylase HDAC6 (Homo sapiens, UniProt Q9UBN7); assay: Inhibition of full length recombinant human HDAC6 using fluorescent-labeled peptide as substrate by electrophoretic mobility shift assay
T2 sequence (Q9UBN7 whole entry): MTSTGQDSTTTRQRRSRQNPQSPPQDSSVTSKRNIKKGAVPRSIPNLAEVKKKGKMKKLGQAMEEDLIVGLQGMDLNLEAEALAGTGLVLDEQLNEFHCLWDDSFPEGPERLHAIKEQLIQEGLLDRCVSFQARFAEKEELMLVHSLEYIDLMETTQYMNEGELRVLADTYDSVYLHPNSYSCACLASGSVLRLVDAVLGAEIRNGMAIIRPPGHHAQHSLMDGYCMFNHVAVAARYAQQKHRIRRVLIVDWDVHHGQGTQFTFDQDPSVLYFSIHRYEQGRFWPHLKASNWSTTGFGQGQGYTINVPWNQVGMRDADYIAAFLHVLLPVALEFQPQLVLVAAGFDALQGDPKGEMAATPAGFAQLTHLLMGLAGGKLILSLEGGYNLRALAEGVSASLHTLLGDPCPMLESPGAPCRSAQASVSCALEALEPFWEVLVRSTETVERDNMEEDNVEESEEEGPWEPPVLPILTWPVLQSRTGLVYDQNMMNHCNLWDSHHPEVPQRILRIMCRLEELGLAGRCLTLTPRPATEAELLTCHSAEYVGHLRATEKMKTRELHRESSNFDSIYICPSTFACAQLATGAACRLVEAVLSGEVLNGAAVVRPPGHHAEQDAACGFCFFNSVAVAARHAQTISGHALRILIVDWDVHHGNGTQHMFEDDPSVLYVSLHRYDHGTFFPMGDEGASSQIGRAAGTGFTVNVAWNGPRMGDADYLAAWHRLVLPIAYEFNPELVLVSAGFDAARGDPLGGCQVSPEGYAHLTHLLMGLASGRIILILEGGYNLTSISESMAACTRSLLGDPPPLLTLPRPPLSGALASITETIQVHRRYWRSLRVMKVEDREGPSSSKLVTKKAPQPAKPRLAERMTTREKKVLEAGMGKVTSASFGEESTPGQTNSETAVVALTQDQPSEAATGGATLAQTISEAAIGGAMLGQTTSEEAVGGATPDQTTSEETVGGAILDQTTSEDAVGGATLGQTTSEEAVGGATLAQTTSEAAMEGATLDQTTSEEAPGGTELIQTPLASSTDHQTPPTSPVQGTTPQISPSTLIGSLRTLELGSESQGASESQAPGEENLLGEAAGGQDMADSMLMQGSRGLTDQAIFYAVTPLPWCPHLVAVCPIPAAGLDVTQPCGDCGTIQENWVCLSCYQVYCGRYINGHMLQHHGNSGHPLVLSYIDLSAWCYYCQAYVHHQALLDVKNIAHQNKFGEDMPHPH

Measured: IC50

Chain of Histone deacetylase 5 (Q9UQL6 whole entry): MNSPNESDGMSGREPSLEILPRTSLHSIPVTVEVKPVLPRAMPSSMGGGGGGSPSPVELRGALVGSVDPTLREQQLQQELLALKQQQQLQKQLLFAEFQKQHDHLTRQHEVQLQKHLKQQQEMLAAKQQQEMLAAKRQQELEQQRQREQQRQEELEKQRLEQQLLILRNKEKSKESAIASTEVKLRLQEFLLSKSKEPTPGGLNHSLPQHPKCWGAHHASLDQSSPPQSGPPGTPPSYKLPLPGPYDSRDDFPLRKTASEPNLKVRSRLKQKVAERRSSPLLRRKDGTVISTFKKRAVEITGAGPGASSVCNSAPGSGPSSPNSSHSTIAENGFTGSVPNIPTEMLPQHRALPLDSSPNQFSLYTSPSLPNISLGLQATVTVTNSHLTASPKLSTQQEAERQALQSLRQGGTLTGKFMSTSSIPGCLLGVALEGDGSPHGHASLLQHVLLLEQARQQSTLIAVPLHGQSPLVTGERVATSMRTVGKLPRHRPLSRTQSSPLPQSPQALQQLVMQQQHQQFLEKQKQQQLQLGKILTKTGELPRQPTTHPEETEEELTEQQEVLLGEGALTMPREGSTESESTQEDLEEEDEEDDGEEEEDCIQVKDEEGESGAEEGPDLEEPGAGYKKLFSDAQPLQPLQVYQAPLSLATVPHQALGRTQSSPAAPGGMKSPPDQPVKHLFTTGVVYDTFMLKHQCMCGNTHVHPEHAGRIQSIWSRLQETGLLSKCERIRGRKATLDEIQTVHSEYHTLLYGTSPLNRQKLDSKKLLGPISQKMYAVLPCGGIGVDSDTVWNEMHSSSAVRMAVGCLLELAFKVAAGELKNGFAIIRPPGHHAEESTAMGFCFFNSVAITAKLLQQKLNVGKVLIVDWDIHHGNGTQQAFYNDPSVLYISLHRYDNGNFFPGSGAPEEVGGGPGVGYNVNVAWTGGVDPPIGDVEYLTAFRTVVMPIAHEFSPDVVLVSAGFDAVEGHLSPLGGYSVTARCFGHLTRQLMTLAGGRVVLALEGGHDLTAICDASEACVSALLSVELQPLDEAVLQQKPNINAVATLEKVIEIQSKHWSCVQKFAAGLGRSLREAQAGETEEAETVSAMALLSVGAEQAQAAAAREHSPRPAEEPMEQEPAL

CC1(C)c2cccc(C(N)=O)c2CN1c1cnc(C(F)(F)F)cn1
> 10 µM: all assays above
